Measured values taken from patent US5023257A, “Intramuscular injection forms of gyrase inhibitors” (Bayer Aktiengesellschaft, priority 1988, dated 1991).

Assay: release of the active compound from intramuscular suspensions
Conditions: oily suspensions, water-soluble form (hydrochlorides, lactates, mesilates and other salts), particularly with interfacially surface active materials

## O=C(O)c1cn(C2CC2)c2cc(N3CCNCC3)c(F)cc2c1=O [ciprofloxacin]
  release of the active compound: very rapidly
